Laboratory results from the kinase profiling compilation of Christmann-Franck et al. (2016).

Molecular target: SGK1 (human) (UniProt O00141)
Assay: Flashplate

Sequence of SGK1 (human) (O00141 whole entry, looked up): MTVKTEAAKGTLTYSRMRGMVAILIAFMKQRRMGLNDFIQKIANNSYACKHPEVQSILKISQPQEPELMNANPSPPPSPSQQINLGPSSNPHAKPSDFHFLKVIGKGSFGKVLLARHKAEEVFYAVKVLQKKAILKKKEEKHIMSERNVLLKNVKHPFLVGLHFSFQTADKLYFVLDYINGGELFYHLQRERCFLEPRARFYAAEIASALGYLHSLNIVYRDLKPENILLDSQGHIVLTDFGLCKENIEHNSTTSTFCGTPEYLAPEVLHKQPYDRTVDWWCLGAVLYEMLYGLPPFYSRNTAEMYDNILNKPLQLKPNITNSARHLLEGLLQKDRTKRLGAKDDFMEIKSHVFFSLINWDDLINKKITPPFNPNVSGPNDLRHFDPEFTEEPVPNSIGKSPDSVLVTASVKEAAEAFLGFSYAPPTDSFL

| Structure (SMILES) | Ki [µM] |
| --- | --- |
| O=c1[nH]cc(I)c2nc(-c3cccc(Cl)c3)cn12 | 7.94 |
| CN(C)CC(C)(C)CNc1nccc(-c2c(-c3ccc(F)cc3)nc3occn23)n1 | > 10 |
| Cn1nc(C(F)(F)F)c2c(=O)c3cc(Cl)ccc3n(O)c21 | > 10 |
| O=C1CCCN1Cc1ccc2c(c1)[nH]c(=O)c1cccn12 | > 10 |
| CN1CC[C@H]1COc1cncc(CCc2ccncc2)c1 | > 10 |
| C/C(=N/NC(=N)N)c1cc(NC(=O)c2cccc(C(=O)Nc3cc(/C(C)=N\NC(=N)N)cc(/C(C)=N/NC(=N)N)c3)c2)cc(/C(C)=N/NC(=N)N)c1 | 1.26 |
| CN(C)S(=O)(=O)c1ccccc1-c1ccc2c(c1)Nc1ccccc1NC2=O | > 10 |
| CCNc1nc2cc(Cl)c(OC)cc2nc1NCC | > 10 |
| Fc1ccc(-c2ncn(CCN3CCOCC3)c2-c2ccc3[nH]ncc3c2)cc1 | > 10 |
| CCCn1c(C2CCNCC2)nc(-c2ccc(Cl)c(Cl)c2)c1-c1ccnc(NC2CCCCC2)n1 | 3.16 |
| O=C(Nc1cccc(-c2nc3sccn3c2-c2ccnc(Nc3cccc(N4CCCC4=O)c3)n2)c1)c1c(F)cccc1F | > 10 |
| CNC(=O)c1cc2c(-c3ccccc3F)n[nH]c2s1 | 3.16 |
| O=C(NS(=O)(=O)c1ccc(NCCSc2ccc(O)cc2)c([N+](=O)[O-])c1)c1ccc(-c2ccc(F)cc2)cc1 | > 10 |
| O=c1[nH]c2ccc(Cl)cc2c(-c2ccccc2)c1C1=NNC(c2ccccc2)C1 (stereo not drawn) | > 10 |
| O=C1NC(=S)S/C1=C1\C(=O)Nc2ccc(Br)cc21 | 2 |
| CCCC(=O)Nc1n[nH]c2nc3ccccc3cc12 | > 10 |
| CCOc1nc(NC(=O)Cc2cc(OC)ccc2OC)cc(N)c1C#N | > 10 |
| COc1cc(/C=C2\SC(=O)NC2=O)ccc1O | 3.98 |
| COc1cc(/C=C(\C#N)c2n[nH]c(N)c2C#N)ccc1O | > 10 |
| O=c1[nH]cnc2c1oc1ccc(Cl)cc12 | > 10 |
| Cc1n[nH]c2ccc(-c3cncc(OCCN)c3)cc12 | 2 |
| O=C1Nc2ccccc2Nc2nnc(I)cc21 | 3.98 |
| Cn1cc(C(CN)c2cncc(/C=C/c3ccncc3)c2)c2ccccc21 (stereo not drawn) | > 10 |
| C[C@H](N)COc1cnc(Cl)c(/C=C/c2ccncc2)c1 | 5.01 |
| O=C(NC(CO)Cc1ccc(Cl)cc1)c1ccc(-c2ccncc2)cc1 (stereo not drawn) | > 10 |
| CNC(=O)N1CCN(CCCOc2ccc3c(c2)-c2[nH]nc(-c4ccc(C#N)nc4)c2C3)CC1 | > 10 |
| O=C(Nc1nc2ccccc2n1CCCO)c1cccc([N+](=O)[O-])c1 | > 10 |

| Structure (SMILES) | Ki [µM] |
| --- | --- |
| COc1nccc(-c2c(-c3ccc(F)cc3)ncn2[C@H]2CC[C@H](O)CC2)n1 | > 10 |
| CC1CSc2c(C(=O)O)c(=O)c3cc(F)c(N4CC[C@@H](N)C4)cc3n21 (stereo partly drawn) | > 10 |
| CCOc1nc(C(=O)NCc2ccc(S(N)(=O)=O)cc2)cc(N)c1C#N | > 10 |
| COc1cc2cnc3c(c2cc1OC)C(=O)NC3=O | > 10 |
| COc1cc2c(Oc3ccc4[nH]c(C)cc4c3F)ncnc2cc1OCCCN1CCCC1 | > 10 |
| N#Cc1ccc2nc(N)n(-c3nc(-c4ccccc4)cs3)c2c1 | > 10 |
| O=C1NCCc2[nH]c(-c3ccnc(/C=C/c4ccccc4)c3)cc21 | 1 |
| O=C(c1cccc(-c2cnc3[nH]ccc3c2)c1)N1CCOCC1 | > 10 |
| FC(F)(F)Oc1ccc(-c2ccc3[nH]cc(C4=CCNCC4)c3c2)cc1 | > 10 |
| Fc1ccc(-c2nc3occn3c2-c2ccnc(NC3CCNCC3)n2)cc1 | > 10 |
| CC(=O)N[C@@H]1CCN(c2nc3[nH]cc(C(=O)O)c(=O)c3c(C)c2F)C1 | > 10 |
| C[C@@H](N)C1CCC(C(=O)Nc2ccncc2)CC1 (stereo partly drawn) | > 10 |
| Nc1n[nH]c2ccc(-c3nnn(Cc4ccccc4)c3-c3ccccc3)cc12 | 0.631 |
| COC(=O)c1ccccc1-c1ccc2c(c1)Nc1ccccc1NC2=O | > 10 |
| Cc1c(O)ccc2c1CCC/C2=N/NC(=O)Cc1cccc2ccccc12 | 0.501 |
| CCOc1nc(NC(=O)Cc2cc(OC)c(S(C)(=O)=O)cc2OC)cc(N)c1Cl | > 10 |
| CNC(=O)c1ccccc1Nc1nc(Nc2ccc(N3CCOCC3)cc2OC)ncc1Cl | > 7.94 |
| O=C(Cc1ccccc1)Nc1cccc(-c2nc3sccn3c2-c2ccnc(Nc3cccc(N4CCOCC4)c3)n2)c1 | > 10 |
| Cc1cc(N2CCOCC2)cc2[nH]c(-c3c(NC[C@@H](O)c4cccc(Cl)c4)cc[nH]c3=O)nc12 | > 10 |
| NC(=O)c1cccc2[nH]c(-c3ccncc3)nc12 | 6.31 |
| O=C(NNC(=S)Nc1ccc(F)cc1)C(O)(c1ccccc1)c1ccccc1 | > 10 |
| CCOc1ccccc1/C=N/NC(=O)c1nnn(-c2nonc2N)c1N1CCCC1 | > 10 |
| CC(C)N(C)C(=O)c1c(-c2ccc3[nH]ncc3c2)nnn1Cc1ccccc1 | 0.631 |
| Cc1cc(OC[C@@H]2CC[C@H](C(=O)O)C2)c(NC(=O)Nc2cnc(C#N)cn2)cc1Cl | 6.31 |
| COc1ccc(/C=C2/S/C(=N/c3ccccc3)NC2=O)cc1O | 5.01 |
| Cc1ccc(CNc2ccc3nnc(-c4ccccc4)n3n2)cc1 | > 10 |

Continued, values first:

| Ki [µM] | Structure (SMILES) |
| --- | --- |
| > 10 | C#Cc1cccc(Nc2ncnc3cc(OCCOC)c(OCCOC)cc23)c1 |
| 2.51 | C[C@@H](O)Cn1cc(-c2cnc(N)c3c(-c4ccc(NC(=O)Nc5cccc(F)c5)cc4)csc23)cn1 |
| 3.98 | Cc1n[nH]c2ncc(C#N)c(-c3ccccc3)c12 |
| > 10 | CN(C)CCCOc1cc2c(c(-c3ccc(Nc4nc5ccccc5o4)cc3)c1)CNC2=O |
| > 10 | CCOC(=O)c1cn(-c2ccc(O)cc2C)c2cc(-c3ccncc3)ccc2c1=O |
| 7.94 | CN(C)c1ccc(CNC(=O)c2cc3c(-c4ccccc4)n[nH]c3s2)cc1 |
| > 10 | O=C1NCc2c1cccc2-c1ccc(Nc2nc3ccccc3o2)cc1 |
| > 10 | Cc1cc(C)cc(NC(=O)Nc2ccc(NC(=O)c3csc4ncnc(N)c34)cc2)c1 |
| > 10 | Cc1cccc(NC(=O)Nc2ccc(-c3csc4c(-c5cnn(C[C@H](C)O)c5)cnc(N)c34)cc2)c1 |
| > 10 | CNC(=O)c1cc(Oc2ccc(NC(=O)Nc3cccc(C(F)(F)F)c3)cc2)ccn1 |
| > 10 | O=C(NCc1ccccc1)c1cccc(-c2cnc3[nH]ccc3c2)c1 |
| 2 | CCN(CC)CCNC(=O)/C=C/c1cnc(N)c2c(-c3ccc(NC(=O)Nc4cccc(C)c4)cc3)csc12 |
| 0.02 | NCCC(C(=O)Nc1ccc2[nH]ncc2c1)c1ccc(Cl)c(Cl)c1 (stereo not drawn) |
| > 10 | Cn1cc(-c2cnc(N)c3c(-c4ccc(NC(=O)Nc5ccc(OC(F)F)cc5)cc4)csc23)cn1 |
| > 10 | CN(c1ccccc1CNc1nc(N)nc2[nH]ccc12)S(C)(=O)=O |
| > 10 | Cc1cccc(NC(=O)Nc2ccc(-c3csc4nc(N)nc(N)c34)cc2)c1 |
| > 10 | Cc1cc(C)c2oc(Nc3ccc(-c4cccc(C(N)=O)c4N)cc3F)nc2c1 |
| > 10 | Cc1cc(C)cc(NC(=O)Nc2ccc(-c3cccc4c3CNC4=O)c(C)c2)c1 |
| > 10 | N[C@@H](Cc1cccc2ccccc12)C(=O)Nc1cncc(/C=C/c2ccncc2)c1 |
| > 10 | COc1ccc(OC)c(NC(=O)c2cnn3c(-c4ccccc4)ccnc23)c1 |
| > 10 | Nc1ncnn2ccc(C(=O)Nc3ccc(NC(=O)Nc4cccc(F)c4)cc3)c12 |
| > 10 | CC(C)(CO)CNc1nccc(-c2c(-c3ccc(F)cc3)nc3c(CCN)nccn23)n1 |
| 0.158 | CC(=O)Nc1cccc(CNc2c(Nc3ccc4[nH]ncc4c3)c(=O)c2=O)c1 |
| > 10 | Nc1nc2ccc(-c3c(-c4ccc(F)cc4)nc4sccn34)cc2n1CC1CC1 |
| > 10 | O=C(Nc1ccc2cn[nH]c2c1)c1ccc(Cl)cc1 |
| > 10 | Cc1cccc(NC(=O)Nc2ccc(-c3ccc4nccnc4c3N)cc2)c1 |
| > 10 | CCNC(=O)c1cnc(N)c2c(-c3ccc(NC(=O)Nc4cccc(F)c4)cc3)csc12 |
| 3.16 | NC(=O)c1cc2c(-c3cccc(F)c3)cncc2s1 |

| Ki [µM] | Structure (SMILES) |
| --- | --- |
| 3.98 | O=C(NC(CO)c1cc(Cl)cc(Cl)c1)c1ccc(-c2ccncc2)cc1 (stereo not drawn) |
| > 10 | N#Cc1ccc(NC(=O)Nc2ccnc3cc(C(F)(F)F)ccc23)nc1 |
| > 10 | Cc1ccc(F)c(NC(=O)Nc2ccc(-c3ccc4nccnc4c3N)cc2)c1 |
| > 10 | OCCNc1cc2cc(-c3ccncc3)ccc2cn1 |
| > 10 | NC(=O)c1cc(-c2cccc(N)c2)cc2cccnc12 |
| > 10 | Cc1ccc(F)c(NC(=O)Nc2ccc(-c3cncc4c3c(N)nn4C)cc2)c1 |
| > 10 | CC(C)(CO)CNc1nccc(-c2c(-c3ccc(F)cc3)nc3c(Cl)nccn23)n1 |
| 2.51 | Nc1n[nH]c2ccc(-c3nnn(Cc4ccccc4)c3-c3ccc(F)cc3)cc12 |
| > 10 | CC1=NN(c2ccc(Cl)c(Cl)c2)C(=O)/C1=C\c1c(C)c(C#N)c2nc3ccccc3n2c1O |
| > 10 | Cc1ccc(NC(=O)Nc2ccc(-c3csc4c(-c5cnn(C(C)C(=O)N(C)C)c5)cnc(N)c34)cc2)cc1 (stereo not drawn) |
| > 10 | Cc1nc2ccc(NS(=O)(=O)c3ccc(N)cc3)cc2nc1C |
| 1.26 | Cc1cc(NC(=O)Cc2ccc(-c3cccc4[nH]nc(N)c34)cc2)ccc1F |
| > 10 | Cc1cc(O)ccc1-n1cc(C(=O)NN)c(=O)c2ccc(-c3ccncc3)cc21 |
| 2.51 | Nc1ncnc2c1N=C(c1ccc(NC(=O)Nc3cccc(C(F)(F)F)c3)cc1)CCN2 |
| 0.0398 | O=C1NN=Cc2c[nH]c3cc(NC(=O)[C@@H]4C[C@H]4c4ccccc4)cc1c23 |
| > 10 | CC(=O)Nc1cc(N)c(C#N)c(-c2ccc3ccccc3c2)n1 |
| 0.398 | Nc1n[nH]c2cccc(-c3ccc(NC(=O)Nc4cc(C(=O)O)ccc4F)cc3)c12 |
| 2 | Cc1cccc(NC(=O)Nc2ccc(-c3cccc4[nH]ncc34)cc2)c1 |
| 0.794 | O=C(O)c1ccccc1Nc1ccnc(Nc2cccc(O)c2)n1 |
| 6.31 | Cc1cnc(Nc2cccc(S(N)(=O)=O)c2)nc1Nc1ccc(OCC(N)=O)cc1 |
| > 10 | Cc1cccc(NC(=O)Nc2ccc3c(c2)CCc2sc4ncnc(N)c4c2-3)c1 |
| > 10 | Nc1ncnc(Nc2cc(CNC(=O)C(F)(F)F)c(O)c(-c3ccc(Cl)cc3)c2)n1 |
| 7.94 | Cc1cc(C)cc(NC(=O)Nc2ccc(-c3c(C)sc4ncnc(N)c34)cc2)c1 |
| > 10 | COc1ccc(/C=C2/C(=O)ON=C2c2ccc(Br)cc2)cc1OC |
| > 10 | Oc1ccc(Nc2ncnc3scc(Cl)c23)cc1 |
| > 10 | CCCS(=O)(=O)Nc1ccc(-c2ccc3[nH]nc(NC(C)=O)c3c2)cc1 |
| > 10 | Cc1c(-c2cccc(OCc3ccccc3)c2)c2c(N)ncnc2n1[C@H]1C[C@H](CN2CCCC2)C1 |
